These results are taken from publication PMC5426080, “Catalytic Intermediate Crystal Structures of Cysteine Desulfurase from the Archaeon Thermococcus onnurineus NA1” (Archaea, 2017).

The target in test [1] is cysteine desulfurase from Thermococcus onnurineus NA1 (Thermococcus onnurineus NA1). Description: crystal structure; ToCDS alone (crystal I, NAT, 2.6 Å, space group P212121), a dimer in the asymmetric unit; crystals II-IV soaked or co-crystallised with 5 mM L-cysteine and 1 mM PLP, each with protomers A and B.
For test [2], the target named is T1, ToCDS (cysteine desulfurase, CDS) (Thermococcus onnurineus, UniProt B6YT87).
T1 construct: gene TON_0289; full length, 399 residues, N-terminal 7xHis-TEV tag (cleavage not mentioned), E. coli BL21(DE3), about 44 kDa, homodimer; PLP on Lys216, catalytic Cys356; EC 2.8.1.7; primers encode N-terminus MIPEDV and C-terminus KGLKT
T1 sequence (B6YT87 entry or part of it): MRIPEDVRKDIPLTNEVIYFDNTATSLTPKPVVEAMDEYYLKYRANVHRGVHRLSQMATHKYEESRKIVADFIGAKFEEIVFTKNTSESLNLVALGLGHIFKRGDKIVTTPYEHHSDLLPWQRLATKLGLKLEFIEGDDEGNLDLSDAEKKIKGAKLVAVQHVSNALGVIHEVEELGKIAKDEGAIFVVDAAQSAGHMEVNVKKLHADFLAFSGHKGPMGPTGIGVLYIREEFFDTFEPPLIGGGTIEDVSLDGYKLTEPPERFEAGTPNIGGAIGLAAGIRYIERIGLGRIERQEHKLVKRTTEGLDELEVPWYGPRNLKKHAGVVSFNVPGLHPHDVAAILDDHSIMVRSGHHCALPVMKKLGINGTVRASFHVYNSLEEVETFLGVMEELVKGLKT
Description: X-ray crystallography. Format: binding. The source says:
X-ray crystallography on ToCDS (cysteine desulfurase, CDS) | PLP was Schiff-base linked with […] at the active site. | the alanine was tightly bound: the conserved […] side chain had bifurcated hydrogen bonds

Consider “cysteine desulfurase from Thermococcus onnurineus NA1 (enzyme)”, for which the stoichiometry N (commonly a count of units in the complex or per binding partner) in test [1] worked out at 2.
Regarding `Cc1ncc(COP(=O)(O)O)c(C=O)c1O` [PLP, pyridoxal 5′-phosphate], in test [2] (covalent, internal aldimine Schiff base with Lys216, native crystal I, 2.6 Å, pH 8.5), the X-ray crystallography entry is “PLP was Schiff-base linked with Lys216 at the active site”.
Take `C[C@H](N)C(=O)O` [alanine]: the X-ray crystallography entry in test [2] (crystal III 1.5 Å (protomer A: unbonded alanine, internal aldimine; protomer B: gem-diamine) and crystal II 2.3 Å (gem-diamine, covalent to PLP), from L-cysteine and PLP by cocrystallization or soakin) is on record as “the alanine was tightly bound: the conserved Arg371 side chain had bifurcated hydrogen bonds”.
